Molecular target: Muscarinic acetylcholine receptor M1 (Rattus norvegicus) (UniProt P08482)
Assay: M1 Y381A mutant agonism, calcium flux – cell-based, rat, CHO-K1, mechanism study for M1 allosteric modulator project (AID 1743)
Settings: Fluo-4 calcium flux

Sequence of Muscarinic acetylcholine receptor M1 (Rattus norvegicus) (P08482 whole entry Y381A, looked up): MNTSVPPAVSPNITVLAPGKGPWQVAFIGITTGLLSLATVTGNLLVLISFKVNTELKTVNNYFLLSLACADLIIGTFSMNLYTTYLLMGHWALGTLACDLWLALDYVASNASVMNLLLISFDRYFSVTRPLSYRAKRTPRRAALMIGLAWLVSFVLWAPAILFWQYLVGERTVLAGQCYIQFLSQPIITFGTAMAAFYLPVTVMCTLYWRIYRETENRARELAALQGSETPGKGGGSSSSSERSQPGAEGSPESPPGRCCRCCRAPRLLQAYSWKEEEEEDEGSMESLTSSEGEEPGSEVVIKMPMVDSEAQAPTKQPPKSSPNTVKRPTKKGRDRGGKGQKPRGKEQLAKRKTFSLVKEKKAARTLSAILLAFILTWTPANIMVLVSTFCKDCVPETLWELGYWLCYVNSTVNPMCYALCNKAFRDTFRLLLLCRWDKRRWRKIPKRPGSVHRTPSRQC

Row | EC50 [nM] | SMILES
1 | 1230 | CCOC(=O)N1CCC(NCCNC(=O)c2cccs2)CC1
2 | 304 | CCOC(=O)N1CCC(NCCNC(=O)c2ccccc2)CC1
3 | 379 | CCOC(=O)N1CCC(NCCNC(=O)c2ccccc2C)CC1

Reference: PubChem BioAssay AID1743 (Vanderbilt High Throughput Screening Facility, 2009)
